Read-outs that look alike come from different tables or passages of the source.
Assays:
CCR1 [1] = molecular target: T1, CCR1 (Homo sapiens, UniProt P32246); assay: Live cell NanoBRET binding assay, HEK293T cells expressing CCR1_Nluc; design: Promega pNLF1-C (Nluc) #CCR010TN00; host or cells: HEK293T, transient (PEI); conditions: for Ki: 12 (1000 nM), live HEK293T cells
T1 sequence (P32246 1-355): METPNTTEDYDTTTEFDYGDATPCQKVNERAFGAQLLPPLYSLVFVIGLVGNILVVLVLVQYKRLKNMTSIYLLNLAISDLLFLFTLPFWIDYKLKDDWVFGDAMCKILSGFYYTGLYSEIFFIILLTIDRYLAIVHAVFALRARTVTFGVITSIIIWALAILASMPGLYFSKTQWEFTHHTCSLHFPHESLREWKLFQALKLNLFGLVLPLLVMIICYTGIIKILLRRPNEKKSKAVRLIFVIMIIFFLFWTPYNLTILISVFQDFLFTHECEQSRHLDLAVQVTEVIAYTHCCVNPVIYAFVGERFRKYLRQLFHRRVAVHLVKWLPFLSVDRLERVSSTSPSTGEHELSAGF

human CCR2b = molecular target: T2, human CCR2b (Homo sapiens, UniProt P41597); assay: Membrane-based radioligand binding assay with [3H]-CCR2-RA-[R], U2OS membranes; conditions: [3H]CCR2-RA-[R] 6 nM, 25 °C
T2 sequence (P41597 1-360 isoform P41597-2): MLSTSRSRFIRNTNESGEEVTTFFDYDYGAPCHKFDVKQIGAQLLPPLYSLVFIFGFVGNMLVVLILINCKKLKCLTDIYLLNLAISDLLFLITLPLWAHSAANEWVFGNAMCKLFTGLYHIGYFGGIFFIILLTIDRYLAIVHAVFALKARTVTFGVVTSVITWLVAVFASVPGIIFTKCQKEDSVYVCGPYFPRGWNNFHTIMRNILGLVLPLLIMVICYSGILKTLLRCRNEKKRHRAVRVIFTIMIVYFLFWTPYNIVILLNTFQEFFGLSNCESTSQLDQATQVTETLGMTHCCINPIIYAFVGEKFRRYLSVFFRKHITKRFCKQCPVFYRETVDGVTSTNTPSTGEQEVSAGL
Method: (§1) Membrane-based radioligand binding assays: Assays were performed according to the published protocol.13 Radioligand binding assays were performed in a 100 µ L reaction volume containing varying concentrations (final concentrations: 0.001 – 10 µM) of compounds 23 and 5, 6 nM [3H]-CCR2-RA-[R] (specific activity 60.6 Ci mmol-1, custom labeled by Vitrax in Placentia, CA, USA), and 15 µg membrane protein, all diluted in assay buffer (50mM Tris-HCl, 5 mM MgCl2, 0.1% CHAPS, at pH 7.4). Membranes were obtained from Tango™ CCR1-bla or Tango™ CCR2-bla osteosarcoma (U2OS) cells stably expressing the human CCR1 ([…]) or human CCR2b (U2OS-CCR2) cells (Invitrogen, Carlsbad, CA, USA). Total binding was determined in the absence of competing ligand, while non -specific binding was determined in the presence of 10 µM CCR2-RA-[R]. After membrane addition, reaction mixtures were incubated for 2 h at 25 °C while shaking. After 2 h, reactions were terminated by harvesting through a 96 -well GF/C filter plate using a PerkinElmer Filtermate harvester (PerkinElmer, Groningen, NL) and ice -cold wash buffer (50mM Tris-HCl, 5 mM MgCl2, 0.1% CHAPS, at pH 7.4). Afterwards, filter plate was dried, and radioactivity was measured in a P-E-2450 Microbeta2 scintillation plate counter (PerkinElmer, Groningen, NL) after addition of 25 µL of Microscint scintillation cocktail (PerkinElmer, Groningen, NL). […]
(§2) Technologies) for 20 min. […]
(§3) Finally, the top 5% of the identified hits were subsequently docked to a homology model of CCR1 (vide infra). After visual examination of the obtained binding modes 24 hit compounds were identified for further investigation .
(§4) Molecular docking: For the docking studies in the course of our virtual screening campaign, the CCR1 protein was […]
(§5) 27, 28 CCR1 structure was optimized using the Quickprep and structure preparation wizard in MOE 24 using CHARMM27 forcefield. The protein was saved in mol2 format and loaded in GOLD.25, 26 The amino acids defining the IABS were listed in a text file to define the docking cavity. 50 GA runs were performed for docking CCR2-RA-[R] (4-[R]) and SN_12 (43), with the generated solutions clustered based on their RMSD with the threshold set to 0.75 Å using the complete linkage method. Docking runs were performed using ChemScore. Flexibility of amino acids Lys63ICL1, Arg1313.50, Leu2406.36 and Arg3078.49 was taken in consideration in the docking runs, with conformational sampling of their side chains being done by the rotamer libraries implemented in GOLD.25, 26 For the docking studies with our ligand-linker conjugates (Figure S1), molecular ligand structures were geometry optimized as neutral molecules by means of Avogadro (Version 1.2.0)29 using the Universal Force Field (UFF) and the Steepest Decent Algorithm until convergence (ΔE = 0).
(§6) CCR113 was used for docking. The compounds were docked by means of AutoDock Vina 1.1.2.30, 31 An exhaustiveness value of 8 and a search space of 22 x 22 x 22 Å³ was applied around the unliganded intracellular allosteric binding site of CCR1. Twenty docking poses were generated for each ligand and inspected manually and according to the docking score.

CCR1 [2] = molecular target: T1, CCR1; assay: as above; conditions: for Ki: [3H]CCR2-RA-[R] 6 nM, 25 °C
Method: as §1, §2, §3, §4, §5, §6

CCR1 [3] = molecular target: T1, CCR1; assay: Membrane-based NanoBRET competition assay with 12 (2000 nM) and CCR1_Nluc membranes; format: binding; design: Promega pNLF1-C (Nluc) #CCR010TN00; host or cells: HEK293T, transient (PEI); conditions: for Ki: read-out: Ki, CCR1 (converted)
[4] = read-out: Ki, CCR2 (radioligand)
[5] = read-out: Ki, CCR1 (radioligand)
[6] = 12 (2000 nM), CCR1_Nluc membranes

| Ki (CCR1 [1]; read-out: Ki, live cells) [nM] | Ki (CCR1 [1]; read-out: pKi ± SEM, live cells (converted)) [nM] | Ki (human CCR2b; [4]) [nM] | CCR1 over CCR2 binding selectivity (radioligand) (CCR1 [2]) [fold] | Ki (CCR1 [2]; [5]) [nM] | Ki (CCR1 [3]; [6]) [nM] | CCR1 over CCR2 binding selectivity (CCR1 [3]; NanoBRET competition binding assays) | Ki (human CCR2b; read-out: pKi, CCR2 (radioligand) (converted)) [nM] | Ki (CCR1 [2]; read-out: pKi, CCR1 (radioligand) (converted)) [nM] | pKi ± SEM, CCR1 (CCR1 [3]; [6]) | Kd (CCR1 [1]; live HEK293T cells expressing CCR1_Nluc) [nM] | SMILES |
| --- | --- | --- | --- | --- | --- | --- | --- | --- | --- | --- | --- |
| 235 | 229 | 3820 | 33 | 117 | 100 | at least 172 fold |  |  |  |  | O=C(C1=C(O)C(=O)N(CCc2ccc(O)cc2)C1c1ccc(F)cc1)c1ccccc1 (racemic) [compound 23] |
| 24.2 |  | 9 |  | 18 | 11.8 |  | 7.94 | 15.8 | 7.96 ± 0.10 |  | CC(=O)C1=C(O)C(=O)N(c2ccc(Br)cc2F)C1C1CCCCC1 (stereo not drawn) [compound 5, reference compound] |
|  |  |  |  |  |  |  |  |  |  | 505 ± 93 | CN(C)c1ccc2c(-c3cc(C(=O)NCCOCCOCc4cn(CCCC(=O)C5=C(O)C(=O)N(c6ccc(Br)cc6F)C5C5CCCCC5)nn4)ccc3C(=O)[O-])c3ccc(=[N+](C)C)cc-3oc2c1 (stereo not drawn) [compound 12] |
